Reference: PMC10788856, “Mimicking Nonribosomal Peptides from the Marine Actinomycete Streptomyces sp. H-KF8 Leads to Antimicrobial Peptides” (ACS Infectious Diseases, 2023)
Values after ≈ are worked out from the molar mass of the structure shown. Marks after values point to notes of the source that are not given here. Numbered stars: 1 amine (or outer) side, 2 acyl side, 3 side chain; on linkers, the order of the positions; unused ones are H or OH. Bridge positions count the residues as written; N and C are the ends. Square brackets hold non-standard residues; d marks the D form. Peptide text beside a SMILES is read from it. Tyr(3-NO2) = N[C@@H](Cc1ccc(O)c([N+](=O)[O-])c1)C(=O)O; Glutaryl = O=C(CCCC(=O)[*:2])[*:1]; Orn = NCCC[C@H](N)C(=O)O

What was measured:
[1] = tested on: Candida albicans (ATCC 64549/CCUG31028); assay: Minimum microbicidal concentration (MMC99) assay; format: cell-based, C. albicans; conditions: BHI diluted 1/100, 37 °C, median, n = 3
Method: (§1) The microbicidal activity of the synthetic peptides was assessed against S. aureus (ATCC 12600; American Type Culture Collection, Manassas, VA, USA), Escherichia coli (CCUG 31246; Culture Collection, University of Gothenburg, Sweden), and Candida albicans (ATCC 64549/CCUG31028) using an MMC assay, as described previously by […] et al. (specific details in Supporting Information, pages 10, 11).[28] The assay was performed in BHI diluted 1/100 (BHI100). […] page 11: Table S5. Energy and structural ensembles of synthesized peptides. […] Energy -3887.06 -3620.88 -4968.42 -2163.76 -2646.75 Van der Waals solv. Energy 117.32 91.57 183.20 -88.88 -139.89 Mean RMSD* (Å), mean±SD […] Heavy atoms 1.87 ± 0.33 1.77 ± 0.50 0.98 ± 0.34 0.63 ±0.22 2.88 ±0.62 MMC99 activity including salt stability measurements Antimicrobial activity of L2 and L3 in the presence of NaCl. 1Table S6. Peptide MMC99 (μg/ml) sin NaCl S. aureus E.coli C. albicans (mM) 2[…] 0 50 25 25 85 - - - - - - >200 >200 >200 150 - - - - - - >200 >200 >200 3L 0 12.5 12.5 25 12,5 6.3 6.3 12.5 6.3 12.5 […] 150 >400 >400 (-)2 >400 >400 >400 >200 >200 >200 […] or 150 mM NaCl. L2 and L3 were serially diluted in twofold steps with a starting dilution of 200 μg/ml […] All sample dilutions were run in duplicates (L2) or triplicates (L3). 2 The growth of S. aureus at 24 h in BHI 100 with 85 or 150 mM NaCl was reduced. Minimum microbicidal concentration (MMC), killing 99% of the inoculum. All microorganisms were cultured in brain-heart infusion broth (BHI) overnight on a shaker at 37°C. The cultures were thereafter transferred to fresh BHI broth in volumes constituting 10% of total, and incubated for an additional 2 h to reach exponential growth phase. The bacterial cultures were washed once in BHI diluted 1/100 (BHI100), followed by resuspension in BHI100. The cell suspensions were diluted to a density of […] (bacteria) or 2x10^7 CFU/ml (yeast), as estimated by optical density measurement at 590 nm. […] Serum stability Figure S 133. […] A) peptide L2 B) peptide L3. C) peptide L3-K. D) peptide C3.

C. albicans = assay: microbe, parasite or virus in culture; format: cell-based; conditions: for C. albicans MIC: 16 h
S. aureus = assay: microbe, parasite or virus in culture; format: cell-based; conditions: for S. aureus MIC: 16 h
E. coli CCUG31246 = format: cell-based; conditions: CCUG31246, 16 h
Method: MICs were performed under the same growth conditions used for mode of action analysis following the guidelines issued by the Clinical Laboratory Standardization Institute (CLSI) with slight modifications. Serial two-fold dilutions of the peptides were prepared in 1:10 BHI in a sterile 96-well plate and subsequently inoculated with 5 × 10^5 CFU/mL of E. coli CCUG31246. […] The following MICs were obtained: C3: 512 μg/mL, L3: 64 μg/mL, and L3-K: 128 μg/mL. These concentrations were used for all mechanistic experiments. Polymyxin B was used as a positive control in all assays at a final concentration of 10 μg/mL.

[2] = tested on: Escherichia coli (CCUG 31246); assay: Minimum microbicidal concentration (MMC99) assay; format: cell-based, E. coli; conditions: BHI diluted 1/100, 37 °C, median, n = 3
Method: as §1

S. aureus (ATCC 12600) = assay: Minimum microbicidal concentration (MMC99) assay; format: cell-based; conditions: for S. aureus MMC99 6 h / S. aureus MMC99 24 h / S. aureus MMC99 2 h: BHI diluted 1/100, 37 °C, median, n = 3; for S. aureus MMC99 2 h: lowest concentration killing 99% of inoculum, two-fold dilutions 100-1.6 μg/mL
Method: as §1

[3] = tested on: hepatoblastoma (HepG2) cells; format: cell-based, human
Method: (§2) To confirm the peptide selectivity toward bacteria cells, cytotoxicity assays of synthesized peptides L2, L3, L3-K, and C3 against human embryonic kidney (HEK) and hepatoblastoma (HepG2) were performed (Figure 4). The cell viability was assessed using resazurin 24 h post peptide exposure. The line at 70% cell viability marks out the threshold for cytotoxic potential compared to the negative control.
(§3) Figure 4 Cell viability assessment using the resazurin assay 24 h post peptide exposure: (a) HepG2 and (b) HEK cells were treated with various concentrations of the peptides C3, L3, L3-K, and L2. Triton-X was used as a positive control. Cells cultured in pure cell media were used as negative controls and were considered to have 100% cell viability. The line represents the threshold for cytotoxicity level of 70% of cell viability compared to the negative control. Data are presented as the mean ± SD of three biological replicates of the HepG2 cells and the mean ± SD of two biological replicates of the HEK cells.
(§4) Cytotoxicity against human embryonic kidney (HEK) and hepatoblastoma (HepG2) cell lines was assessed. Cells were grown to an initial seeding density of 10 000 cells per well. Metabolic activity was determined in a resazurin-based assay. HEK and HepG2 cells were exposed to four different concentrations of the peptides for 24 h. Treatment with Triton X-100 at 1% v/v was used as a positive control. Following this exposure period, the cells were treated with resazurin at a final concentration of 0.015 mg/mL for 3 h. The metabolic activity was then determined in an resazurin-based assay. The fluorescence intensities were quantified in a Hidex Sense microplate reader using an excitation wavelength of 544 nm and an emission wavelength of 590 nm.

[4] = tested on: human embryonic kidney (HEK) cells; format: cell-based
Method: as §2, §3, §4

[5] = 37 °C, RP-HPLC
Method: Peptide stability in serum is another limiting factor for AMPs as novel antibiotics.[30]
Peptide serum stability was performed according to D́Aloisio et al.[30] and Chen et al.[51] with some minor modifications. The serum stability was investigated using human serum (Sigma-Aldrich) from Human male AB plasma, USA origin, sterile-filtered. 250 μL serum was temperature-equilibrated at 37 °C and 100 μL aqueous peptide solution (L2: 1 mM; L3: 0.9 mM; L3-K: 0.7 mM; and C3: 0.5 mM) was added. RP-HPLC was measured at time intervals of 0, 0.5, 1, 4, and 24 h. For RP-HPLC samples, 30 μL of peptide solution was taken, 7 μL of Fmoc-Gly solution (4 mM) was added, and 2 μL of the sample was injected to HPLC. […]
Figure S 133. RP-HPLC chromatogram (gradient from 10 to 90% acetonitrile in water over 10 min at 2
ml/min, detection at 254 nm) of peptides tested for serum stability. A) peptide L2 B) peptide L3. C)
(1 picture or pasted object on this page, not shown here)

Clc1ccccc1C(c1ccccc1)(c1ccccc1)n1ccnc1 [clotrimazole, reference compound]
C. albicans MMC99 2 h [1]: >100 ^d μg/mL | C. albicans MMC99 6 h [1]: >100 ^d μg/mL | C. albicans MMC99 24 h [1]: >100 ^d μg/mL | MIC (C. albicans; Candida albicans, highest concentration 512 μg/mL, median, n = 3): 4 µg/mL (≈ 11.6 µM)

CC(C)[C@@H](NC(=O)[C@H](CCCN)NC(=O)[C@@H](NC(=O)[C@H](CCCN)NC(=O)[C@H](Cc1c[nH]c2ccccc12)NC(=O)[C@@H](C)NC(=O)[C@H](NC(=O)[C@@H](C)N)C(C)C)[C@@H](C)O)C(N)=O [L2-K] (H-[dA][dV][dA]W[Orn]T[Orn][dV]-NH2)
S. aureus MIC (S. aureus): >512 µg/mL | E. coli MIC (E. coli CCUG31246): >512 µg/mL | C. albicans MIC (C. albicans): >512 µg/mL

CC(C)[C@H]1NC(=O)[C@@H](C)NC(=O)CCCC(=O)NCCCC[C@@H](C(N)=O)NC(=O)[C@@H](C(C)C)NC(=O)[C@@H](CC(=O)O)NC(=O)[C@H]([C@@H](C)O)NC(=O)[C@@H](CC(=O)O)NC(=O)[C@H](Cc2c[nH]c3ccccc23)NC(=O)[C@@H](C)NC1=O [C1] ([dA][dV][dA]W[dD]T[dD][dV]K-NH2; linker N-9 via Glutaryl)
S. aureus MIC (S. aureus): >512 µg/mL | E. coli MIC (E. coli CCUG31246): >512 µg/mL | E. coli MMC99 2 h [2]: >100 µg/mL | E. coli MMC99 6 h [2]: >100 µg/mL | E. coli MMC99 24 h [2]: >100 µg/mL | S. aureus MMC99 6 h (S. aureus (ATCC 12600)): >100 µg/mL | S. aureus MMC99 24 h (S. aureus (ATCC 12600)): >100 µg/mL | S. aureus MMC99 2 h (S. aureus (ATCC 12600)): >100 µg/mL | C. albicans MMC99 2 h [1]: >100 µg/mL | C. albicans MMC99 6 h [1]: >100 µg/mL | C. albicans MMC99 24 h [1]: >100 µg/mL | C. albicans MIC (C. albicans): >512 µg/mL

CC(C)[C@@H](NC(=O)[C@H](CCCN)NC(=O)[C@@H](NC(=O)[C@H](CCCN)NC(=O)[C@H](Cc1c[nH]c2ccccc12)NC(=O)[C@@H](C)NC(=O)[C@H](NC(=O)[C@@H](C)NC(=O)[C@@H](N)Cc1c[nH]c2ccccc12)C(C)C)[C@@H](C)O)C(=O)N[C@@H](Cc1ccc(O)c([N+](=O)[O-])c1)C(=O)N[C@@H](CCCCN)C(N)=O [L3] (H-W[dA][dV][dA]W[Orn]T[Orn][dV][Tyr(3-NO2)]K-NH2)
S. aureus MIC (S. aureus): 248 µg/mL | E. coli MIC (E. coli CCUG31246): 64 µg/mL | cytotoxicity, cell viability HepG2 [3]: no cytotoxicity at any tested concentration | cytotoxicity, cell viability HEK [4]: no cytotoxicity at any tested concentration | stability in human serum ([5]; human serum from male AB plasma, 250 μL serum + 100 μL aqueous peptide solution (L2 1 mM; L3 0.9 mM; L3-K 0.7 mM; C3 0.5 mM), 0, 0.5, 1, 4, 24 h, Fmoc-Gly internal standard): stable after 24 h | additional peaks / shoulder in chromatogram after 24 h in serum, total volume percentage ([5]; human serum, 24 h, detection at 254 nm): 0.6%

CC(C)[C@@H](NC(=O)[C@@H](C)N)C(=O)N[C@H](C)C(=O)N[C@@H](Cc1c[nH]c2ccccc12)C(=O)N[C@H](CC(=O)O)C(=O)N[C@H](C(=O)N[C@H](CC(=O)O)C(=O)N[C@@H](C(=O)N[C@@H](CCCCN)C(N)=O)C(C)C)[C@@H](C)O [L1] (H-[dA][dV][dA]W[dD]T[dD][dV]K-NH2)
S. aureus MIC (S. aureus): >512 µg/mL | E. coli MIC (E. coli CCUG31246): >512 µg/mL | C. albicans MIC (C. albicans): >512 µg/mL

CC(C)[C@H]1NC(=O)[C@H](CCCN)NC(=O)[C@H]([C@@H](C)O)NC(=O)[C@H](CCCN)NC(=O)[C@H](Cc2c[nH]c3ccccc23)NC(=O)[C@@H](C)NC(=O)[C@@H](C(C)C)NC(=O)[C@@H](C)NC(=O)CCCC(=O)NCCCC[C@@H](C(N)=O)NC1=O [C2] ([dA][dV][dA]W[Orn]T[Orn][dV]K-NH2; linker N-9 via Glutaryl)
S. aureus MIC (S. aureus): >512 µg/mL | E. coli MIC (E. coli CCUG31246): >512 µg/mL | E. coli MMC99 2 h [2]: >100 µg/mL | E. coli MMC99 6 h [2]: >100 µg/mL | E. coli MMC99 24 h [2]: >100 µg/mL | S. aureus MMC99 6 h (S. aureus (ATCC 12600)): >100 µg/mL | S. aureus MMC99 24 h (S. aureus (ATCC 12600)): >100 µg/mL | S. aureus MMC99 2 h (S. aureus (ATCC 12600)): >100 µg/mL | C. albicans MMC99 2 h [1]: >100 µg/mL | C. albicans MMC99 6 h [1]: >100 µg/mL | C. albicans MMC99 24 h [1]: >100 µg/mL | C. albicans MIC (C. albicans): >512 µg/mL

CC(=O)O[C@H]1C[C@@]2(C)[C@@H](C[C@@H](O)[C@H]3[C@@]4(C)CC[C@@H](O)[C@@H](C)[C@@H]4CC[C@@]32C)/C1=C(\CCC=C(C)C)C(=O)O [fusidic acid, reference compound]
MIC (S. aureus; Staphylococcus aureus, read-out: S. aureus MIC): 0.09 µg/mL (≈ 0.174 µM) | MMC99 for S. aureus, decreasing over time (S. aureus (ATCC 12600); 2 h to 24 h): 25 to 1.6 μg/mL | S. aureus MMC99 6 h (S. aureus (ATCC 12600)): 6.3 µg/mL | S. aureus MMC99 24 h (S. aureus (ATCC 12600)): 1.6 µg/mL | S. aureus MMC99 2 h (S. aureus (ATCC 12600)): 25 µg/mL
